{"source": "patent US10233146B2", "about": "“Acetylenic cyanoenones as therapeutics for inflammation and carcinogenesis” (THE RESEARCH FOUNDATION FOR THE STATE UNIVERSITY OF NEW YORK, priority 2015, dated 2019)", "key": {"Keap1/Nrf2/ARE pathway": {"tested_on": "Keap1/Nrf2/ARE pathway", "conditions": "topical daily 200 nmol, five days per week for four weeks, cited from earlier work"}, "NQO1 [1]": {"tested_on": "NQO1", "assay": "Induction of NQO1 in Hepa1c1c7 murine hepatoma cells", "assay_type": "cell-based", "conditions": "Mus musculus, Hepa-1c1c7; Hepa1c1c7 cells, 48 h treatment; read-out: NQO1 CD (concentration required to double the specific enzyme activity of NQO1)", "source_text": "In this assay, the concentration required to double (CD value) the specific enzyme activity of NQO1 is used to quantify inducer potency. […] Dinkova-KOstova, A. T. et al. 2012). […] These compounds may be more robust inducers than monocyclic compounds. [table]"}, "[2]": {"tested_on": "NQO1 and glutathione S-transferases", "conditions": "mice, 9.2 mg per kg of food in the diet; cited from earlier work"}, "NQO1 [3]": {"tested_on": "NQO1", "conditions": "Hepa1c1c murine hepatoma cells; cited from earlier work"}}, "data": [{"smiles": "C#C[C@]12C=C(C#N)C(=O)C=C1[C@@]1(C)C=C(C#N)C(=O)C(C)(C)[C@@H]1CC2", "note": "(racemic) [TBE-31 (1), (±)-(4bS,8aR,10aS)-10a-ethynyl-4b,8,8-trimethyl-3,7-dioxo-3,4b,7,8,8a,9,10, 10a-octahydrophenanthrene-2,6-dicarbonitrile]", "values": [{"measurement": "6-thioguanine incorporation into DNA of skin, blood, and liver", "setting": "Keap1/Nrf2/ARE pathway; azathioprine-treated mice", "value": "decreases"}, {"measurement": "systemic induction of the Keap1/Nrf2/ARE pathway", "setting": "Keap1/Nrf2/ARE pathway", "value": "robust systemic induction"}, {"measurement": "EC (2-fold NQO1 activity)", "setting": "NQO1 [1]", "value": 0.0009, "unit": "µM"}, {"measurement": "induction of NQO1 and glutathione S-transferases in the stomach, skin, and liver", "setting": "[2]", "value": "profoundly and dose-dependently induces"}, {"measurement": "upregulation of NQO1", "setting": "NQO1 [3]", "value": "upregulates NAD(P)H: quinone oxidoreductase 1 (NQO1)"}, {"measurement": "IC50", "setting": "iNOS", "value": 1, "unit": "nM"}]}]}
